Laboratory results published in paper PMC9785397, “Exploiting Conserved Quorum Sensing Signals in Streptococcus mutans and Streptococcus pneumoniae” (Microorganisms, 2022).
Converted amounts (≈) assume the structure as drawn. Structures can show the parent of a compound that is named as a salt.

Tests used:
[1] = test system: S. mutans biofilm formation; assay: Biofilm formation (crystal violet); assay type: cell-based, Streptococcus mutans; details: CHX 0.63 μg/mL, 72 h, stimuli renewed every 24 h
Description: (§1) Overnight cultures of S. mutans were diluted 1:1000 in a 1:10 solution of BHI broth supplemented with 0.2% w/v sucrose and artificial saliva (AS; 1.3 g/L KCl, 0.1 g/L NaCl, 0.05 g/L MgCl, 0.1 g/L CaCl2, 0.5 g/L peptone, 25 μg/L NaF, 27 mg/L KH2PO4, 35 mg/L K2HPO4, pH 6.8; all reagents purchased from Merck). Cultures were seeded into 96-well polystyrene microtiter plates (200 µL/well) and incubated at 37 °C under static conditions. To identify the time of incubation that is useful in obtaining a mature biofilm, plates were incubated for 16, 24, 48, 72, or 96 h. Half of the media was renewed every 24 h. At the end of incubations, the wells were emptied and washed three times with sterile PBS to remove planktonic cells. Adhering cells were incubated with resazurin 0.01% in the dark at 37 °C for 20 min [30]. In metabolically active cells, the non-fluorescent resazurin was reduced to highly fluorescent resorufin by dehydrogenase enzymes. The relative fluorescence units (RFU) of resorufin were measured using a fluorimeter (Ex = 530–570 nm, Em = 590–620 nm; Varioskan Lux Reader; Thermo Fisher Scientific).
(§2) To assess the effect of the compounds on biofilm formation or mature biofilm, cultures of S. mutans were prepared as described above. […] The optical density was measured at 570 nm using a microplate reader (Varioskan Lux Reader; Thermo Fisher Scientific). […]

P. aeruginosa = assay: microbe, parasite or virus in culture; assay type: cell-based, Pseudomonas aeruginosa; details: 16 h; for Minimum inhibitory concentration (MIC), P. aeruginosa: peptides 0–50 μM, 37 °C, aerobic, A620 nm, three separate experiments
From the text: (§3) Streptococcus mutans Clarke (strain designation NCTC 10449), Pseudomonas aeruginosa (Schroeter) Migula (strain designation PAO1), Fusobacterium nucleatum, subspecies nucleatum (strain VPI 4355), and Porphyromonas gingivalis (strain 2561) were purchased from ATCC (LGC Standards Srl, Milan, Italy). Streptococcus mitis, Streptococcus oralis, and Streptococcus sanguinis were obtained from clinical isolates and characterized by morphological, biochemical, and molecular typing. S. mutans, S. mitis, S. oralis, and S. sanguinis were maintained in Brain Heart Infusion (BHI) broth or agar under microaerophilic conditions. P. aeruginosa was maintained in trypticase soy (TS) agar or broth. F. nucleatum was maintained in TS agar or broth with defibrinated sheep blood under anaerobic conditions. P. gingivalis was maintained in ATCC Medium 2722 supplemented with TS broth or agar under anaerobic conditions. Before the experiments, bacterial cultures were inoculated in fresh media (dilution 1:100) and grown for 16 h at 37 °C.
(§4) The antimicrobial activities of the tested peptides were assessed through the determination of the minimum inhibitory concentration (MIC) standardized by the Clinical and Laboratory Standards Institute. Bacterial inocula were diluted in 10 mL of MHB […]. The concentration of the bacteria was adjusted to 0.5 McFarland standard, and the bacteria were dispensed in 96-well microtiter plates (final bacterial concentration: 1 × 10^4 CFU/well). Peptides were dissolved in sterile water (stock concentration: 2 mM) and added at final concentrations ranging from 0 to 50 µM. Plates were incubated at 37 °C for 16 h. At the end of incubation, bacterial growth was recorded using a microplate reader (Varioskan Lux Reader; Thermo Fisher Scientific, Milan, Italy) by quantifying the adsorption at 620 nm. Cultures were then opportunely diluted and seeded on agar plates. Bacterial cultures inoculated with the highest final concentration of the vehicle (sterile water) or chlorhexidine hydrochloride salt (CHX, concentration range: 0.05 to 500 μg/mL; Merck, Milan, Italy) were included as controls in each test. Experiments were performed in triplicate.

S. sanguinis = assay: microbe, parasite or virus in culture; assay type: cell-based, Streptococcus sanguinis; details: for Minimum inhibitory concentration (MIC), S. sanguinis: peptides 0–50 μM, 37 °C, microaerophilic, A620 nm, three separate experiments
From the text: as §3, §4

S. mutans mature biofilm = assay: Mature biofilm (crystal violet); assay type: cell-based, Streptococcus mutans; details: CHX 0.63 μg/mL added at 48 h, biofilm assessed 24 h later
Description: as §1, §2

F. nucleatum = assay: microbe, parasite or virus in culture; assay type: cell-based, Fusobacterium nucleatum; details: 16 h; for Minimum inhibitory concentration (MIC), F. nucleatum: peptides 0–50 μM, 37 °C, anaerobic, A620 nm, three separate experiments
From the text: as §3, §4

S. mitis = assay: microbe, parasite or virus in culture; assay type: cell-based, Streptococcus mitis; details: for Minimum inhibitory concentration (MIC), S. mitis: peptides 0–50 μM, 37 °C, microaerophilic, A620 nm, three separate experiments
From the text: as §3, §4

S. oralis = assay: microbe, parasite or virus in culture; assay type: cell-based, Streptococcus oralis; details: for Minimum inhibitory concentration (MIC), S. oralis: peptides 0–50 μM, 37 °C, microaerophilic, A620 nm, three separate experiments
From the text: as §3, §4

P. gingivalis = assay: microbe, parasite or virus in culture; assay type: cell-based, Porphyromonas gingivalis; details: 16 h; for Minimum inhibitory concentration (MIC), P. gingivalis: peptides 0–50 μM, 37 °C, anaerobic, A620 nm, three separate experiments
From the text: as §3, §4

S. mutans = assay: microbe, parasite or virus in culture; assay type: cell-based, Streptococcus mutans; details: for Minimum inhibitory concentration (MIC), S. mutans: peptides 0–50 μM, 37 °C, microaerophilic, A620 nm, three separate experiments
From the text: as §3, §4

[2] = test system: S. mutans bacteriocin production against S. mitis; assay: Bacteriocin overlay assay, S. mutans spotted on S. mitis; assay type: cell-based, Streptococcus mutans; details: analog 20 μM with CSP1 20 μM, 16 h, p < 0.05 vs CSP1
Description: (§5) During the formation of complex biofilm such as dental plaque, the ability of S. mutans to compete with other commensal species determines the success of the cariogenesis process. S. mutans uses antibacterial peptides, namely, bacteriocins, to overcome and subvert the composition of dental microbiota. We investigated the production of bacteriocins using the overlay assay. Overnight cultures of S. mitis, S. oralis, S. sanguinis, P. aeruginosa, F. nucleatum, or P. gingivalis were diluted 1:100 in BHI or TS broth and incubated at 37 °C until they reached an OD620 of 0.3. Cultures were added with agar (BD Difco^TM Agar) at the final concentration of 1.5% w/v and transferred in plates. Overnight cultures of S. mutans were diluted 1:100 in BHI and added with peptides (20 μM) or the vehicle with or without CSP1. Culture media were supplemented with agar to reach the final concentration of 0.7% w/v. The solutions were spotted on the surface of agar plates prepared as described above. The plates were kept on the benchtop for 30 min, allowing the agar containing S. mutans to solidify, and then incubated at 37 °C for 16 h under microaerophilic or anaerobic conditions, as required.
(§6) Spots (10 for each experimental group) were acquired and analyzed using NIH Image J software (version 1.53t August 2022, https://imagej.nih.gov/ij/index.html; accessed on 7 September 2022). The appearance of a clear area on the plate (bacterial growth inhibition) was evaluated as indicative of bacteriocin activity. The diameters of the area were measured in a blinded fashion.

[3] = test system: S. mutans bacteriocin production against S. oralis; assay: Bacteriocin overlay assay, S. mutans spotted on S. oralis; assay type: cell-based, Streptococcus mutans; details: analog 20 μM with CSP1 20 μM, 16 h, p < 0.05 vs CSP1
Description: as §5, §6

[4] = test system: S. mutans bacteriocin production against S. sanguinis; assay: Bacteriocin overlay assay, S. mutans spotted on S. sanguinis; assay type: cell-based, Streptococcus mutans; details: analog 20 μM with CSP1 20 μM, 16 h, p < 0.05 vs CSP1
Description: as §5, §6

comE gene = assay: qRT-PCR, comE gene expression; assay type: cell-based, Streptococcus mutans; details: analog 20 μM with CSP1 20 μM, planktonic, 8 h, qPCR
Description: (§7) S. mutans was cultured in BHI supplemented with peptides or the vehicle. Cultures were centrifuged, and total RNA was isolated and purified from the bacterial pellets using the GRS Total RNA Kit—Bacteria (GK16.0100; GRISP Research Solution, Porto, Portugal), following the manufacturer’s instructions. Purified RNA was subjected to DNase I treatment to remove contaminating DNA. The RNA yield and purity were assessed by measuring the absorbance, and only samples with a ratio of 260/280 nm in the 1.8–2 range were used. cDNA was generated using the cDNA RT kit with an RNAse inhibitor (Applied Biosystems; Monza, Milan). Quantitative PCR (qRT-PCR) was performed using SYBR green mixture (iScript One Step RT-PCR kit; Bio-Rad, Segrate, Milan) to determine the transcript levels of genes using the oligonucleotides listed in Table 3. The gyrA gene served as the housekeeping gene.

bip gene = assay: qRT-PCR, bip gene expression; assay type: cell-based, Streptococcus mutans; details: analog 20 μM with CSP1 20 μM, 8 h, qPCR, p < 0.05 vs CSP1
Description: as §7

comD gene = assay: qRT-PCR, comD gene expression; assay type: cell-based, Streptococcus mutans; details: analog 20 μM with CSP1 20 μM, planktonic, 8 h, qPCR
Description: as §7

[5] = CHX, microdilution method and colony counting assay

| SMILES | Minimum inhibitory concentration (MIC), P. aeruginosa (P. aeruginosa) | Effect on the CSP1-induced antibacterial effects against S. mitis [2] | Minimum inhibitory concentration (MIC), S. sanguinis (S. sanguinis; 16 h) | Effect on the CSP1-induced antibacterial effects against S. oralis [3] | Effect on the CSP1-induced antibacterial effects against S. sanguinis [4] | Effect on the expression of comE induced by CSP1 (comE gene) | Effect on the CSP1-induced expression of bip (bip gene) | Minimum inhibitory concentration (MIC), F. nucleatum (F. nucleatum) | Minimum inhibitory concentration (MIC), S. mitis (S. mitis; 16 h) | Minimum inhibitory concentration (MIC), S. oralis (S. oralis; 16 h) | Minimum inhibitory concentration (MIC), P. gingivalis (P. gingivalis) | Minimum inhibitory concentration (MIC), S. mutans (S. mutans; 16 h) | Effect on the expression of comD induced by CSP1 (comD gene) | also measured |
| --- | --- | --- | --- | --- | --- | --- | --- | --- | --- | --- | --- | --- | --- | --- |
| [H]/N=C(\N/C(=N/[H])NCCCCCCNC(=N)NC(=N)Nc1ccc(Cl)cc1)Nc1ccc(Cl)cc1 [CHX, chlorhexidine hydrochloride salt] |  |  |  |  |  |  |  |  |  |  |  |  |  | Reduction of biofilm formation vs. vehicle [1]: 70%; MIC (P. aeruginosa; Pseudomonas aeruginosa, read-out: Minimum inhibitory concentration (MIC), P. aeruginosa): 1.68 µg/mL; Concentration inducing bactericidal activity, S. sanguinis (S. sanguinis; [5]): below 1 μg/mL; MIC (S. sanguinis; Streptococcus sanguinis, 16 h, read-out: Minimum inhibitory concentration (MIC), S. sanguinis): 0.69 µg/mL; Reduction of mature biofilm vs. vehicle (S. mutans mature biofilm): 54%; MIC (F. nucleatum; Fusobacterium nucleatum, read-out: Minimum inhibitory concentration (MIC), F. nucleatum): 300 µg/mL; Concentration inducing bactericidal activity, S. mitis (S. mitis; [5]): below 1 μg/mL; MIC (S. mitis; Streptococcus mitis, 16 h, read-out: Minimum inhibitory concentration (MIC), S. mitis): 0.5 µg/mL; Concentration inducing bactericidal activity, S. oralis (S. oralis; [5]): below 1 μg/mL; MIC (S. oralis; Streptococcus oralis, 16 h, read-out: Minimum inhibitory concentration (MIC), S. oralis): 0.57 µg/mL; MIC (P. gingivalis; Porphyromonas gingivalis, read-out: Minimum inhibitory concentration (MIC), P. gingivalis): 254 µg/mL; Concentration inducing bactericidal activity, S. mutans (S. mutans; [5]): below 1 μg/mL; MIC (S. mutans; Streptococcus mutans, 16 h, read-out: Minimum inhibitory concentration (MIC), S. mutans): 0.63 µg/mL |
| CC[C@H](C)[C@H](NC(=O)[C@H](Cc1ccccc1)NC(=O)[C@H](CC(=O)O)NC(=O)[C@H](CCCNC(=N)N)NC(=O)[C@H](Cc1ccccc1)NC(=O)[C@H](Cc1ccccc1)NC(=O)[C@H](CCCCN)NC(=O)[C@H](CO)NC(=O)[C@H](CC(C)C)NC(=O)[C@H](CCCNC(=N)N)NC(=O)[C@H](CCSC)NC(=O)[C@H](CCC(=O)O)NC(C)=O)C(=O)N[C@@H](CC(C)C)C(=O)N[C@@H](CCC(N)=O)C(=O)N[C@@H](CCCNC(=N)N)C(=O)N[C@@H](CCCCN)C(=O)N[C@@H](CCCCN)C(=O)O [AcCSP1] | >50 µM | significantly reduced | 27 µM (≈ 61.7 µg/mL) | significantly reduced | significantly reduced | inhibited the expression | significantly reduced | >50 µM | 24 µM (≈ 54.8 µg/mL) | 21 µM (≈ 48 µg/mL) | >50 µM | 20 µM (≈ 45.7 µg/mL) | inhibited the expression |  |
| CC[C@H](C)[C@H](NC(=O)[C@H](Cc1ccccc1)NC(=O)[C@H](CC(=O)O)NC(=O)[C@H](CCCNC(=N)N)NC(=O)[C@H](Cc1ccccc1)NC(=O)[C@H](Cc1ccccc1)NC(=O)[C@H](CCCCNC(C)=O)NC(=O)[C@H](CO)NC(=O)[C@H](CC(C)C)NC(=O)[C@H](CCCNC(=N)N)NC(=O)[C@H](CCSC)NC(=O)[C@H](CCC(=O)O)NC(C)=O)C(=O)N[C@@H](CC(C)C)C(=O)N[C@@H](CCC(N)=O)C(=O)N[C@@H](CCCNC(=N)N)C(=O)N[C@@H](CCCCNC(C)=O)C(=O)N[C@@H](CCCCNC(C)=O)C(=O)O [Ac4CSP1] | >50 µM | significantly reduced | 25 µM (≈ 60.3 µg/mL) | significantly reduced | significantly reduced | inhibited the expression | significantly reduced | >50 µM | 28 µM (≈ 67.5 µg/mL) | 23 µM (≈ 55.5 µg/mL) | >50 µM | 26 µM (≈ 62.7 µg/mL) | inhibited the expression |  |
